Data on ten compounds can be found in patent US7138410B2, “Aza-bicyclic N-biarylamides with affinity for the α7 nicotinic acetylcholine receptor” (Bayer HealthCare AG, priority 2002, dated 2006).

pKi: −log10 of the molar value. Counter-ions that a name gives are not always drawn. Like-named read-outs stand apart in the source and are kept apart here.

The target of the assay is T1, α7 nAChR (Rattus norvegicus, UniProt Q05941).
T1 construct: Rat brain tissue (hippocampus or whole brain) is homogenized in homogenization buffer; from tissue; host or cells: rat brain (hippocampus or whole brain), P2 membrane fraction
The experiment in a line: Affinity for α7 nAChR by inhibition of [3H]-methyllycaconitine binding to rat brain membranes. How it is done:
1. Determination of the Affinity of Test Substances for α7 nAChR by Inhibition of [^3H]-methyllycaconitine Binding to Rat Brain Membranes
The [^3H]-methyllycaconitine binding assay is a modification of the method described by Davies et al. (Neuropharmacol. 1999, 38, 679–690).
Rat brain tissue (hippocampus or whole brain) is homogenized in homogenization buffer (10% w/v, 0.32 M sucrose, 1 mM EDTA, 0.1 mM phenylmethylsulfonyl fluoride (PMSF), 0.01% (w/v) NaN3, pH 7.4, 4° C.) at 600 rpm in a glass homogenizer. The homogenate is centrifuged (1000×g, 4° C., 10 min) and the supernatant is removed. The pellet is resuspended (20% w/v) and the suspension is centrifuged (1000×g, 4° C., 10 min). The two supernatants are combined and centrifuged (15 000×g, 4° C., 30 min). The pellet obtained in this way is referred to as the P2 fraction.
The P2 pellet is washed twice with binding buffer (50 mM Tris-HCl, 1 mM MgCl2, 120 mM NaCl, 5 mM KCl, 2 mM CaCl2, pH 7.4), and centrifuged (15 000×g, 4° C., 30 min).
The P2 membranes are resuspended in binding buffer and incubated in a volume of 250 μl (amount of membrane protein 0.1–0.5 mg) in the presence of 1–5 nM [^3H]-methyllycaconitine, 0.1% (w/v) BSA (bovine serum albumin) and various concentrations of the test substance at 21° C. for 2.5 h. The nonspecific binding is determined by incubation in the presence of 1 μM α-bungarotoxin or 100 μM nicotine or 10 μM MLA (methyllycaconitine).
The incubation is stopped by adding 4 ml of PBS (20 mM Na2HPO4, 5 mM KH2PO4, 150 mM NaCl, pH 7.4, 4° C.) and filtering through type A/E glass fibre filters (Gelman Sciences) which have previously been placed in 0.3% (v/v) polyethyleneimine (PEI) for 3 h. The filters are washed twice with 4 ml of PBS (4° C.), and the bound radioactivity is determined by scintillation measurement. All the assays are carried out in triplicate. The dissociation constant Ki of the test substance is determined from the IC50 of the compounds (concentration of the test substance at which 50% of the ligand bound to the receptor is displaced), the dissociation constant KD and the concentration L of [^3H]-methyllycaconitine using the equation Ki=IC50/(1+L/KD).

[1] abbreviates: [3H]-methyllycaconitine displacement, rat brain P2 membranes, 21° C., 2.5 h, Ki=IC50/(1+L/KD), read-out: Ki.

T1 sequence (Q05941 23-502): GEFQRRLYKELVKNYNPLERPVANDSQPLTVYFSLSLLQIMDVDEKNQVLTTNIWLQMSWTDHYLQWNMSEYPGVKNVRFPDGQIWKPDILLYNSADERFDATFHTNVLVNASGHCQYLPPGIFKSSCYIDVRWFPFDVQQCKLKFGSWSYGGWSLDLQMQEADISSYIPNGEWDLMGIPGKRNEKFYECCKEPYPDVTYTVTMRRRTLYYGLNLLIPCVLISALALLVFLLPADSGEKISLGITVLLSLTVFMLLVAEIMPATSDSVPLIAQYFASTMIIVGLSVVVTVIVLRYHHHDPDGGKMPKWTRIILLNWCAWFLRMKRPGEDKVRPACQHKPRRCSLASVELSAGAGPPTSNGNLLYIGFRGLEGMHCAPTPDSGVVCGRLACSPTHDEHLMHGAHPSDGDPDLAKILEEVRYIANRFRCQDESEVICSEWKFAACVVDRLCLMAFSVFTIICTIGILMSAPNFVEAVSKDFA

One may read the pKi as the negative decadic logarithm of the Ki, by convention in mol/L. As to `CC(=O)c1ccc(-c2ccc(NC(=O)CC3CN4CCC3CC4)cc2)cc1` (stereo not shown) [Example 26], the pKi under setting [1] is 6.51. Consider `CC(=O)c1ccccc1-c1ccc(NC(=O)CC2CN3CCC2CC3)cc1` (stereo not shown) [Example 31], for which, under setting [1], the pKi is 6.38. As to `O=C(Nc1ccc(-c2ccc(CO)cc2)cc1)[C@@H]1CN2CCC1CC2` [Example 15, (3S)-N-[4′-(Hydroxymethyl)-1,1′-biphenyl-4-yl]-1-azabicyclo[2.2.2]octane-3-carboxamide Hydrochloride], the negative logarithm of the Ki (pKi) was 7.41.

Compound `O=C(CC1CN2CCC1CC2)Nc1cccc(-c2ccc(CO)cc2)c1` (stereo not shown) [Example 9, 2-(1-Azabicyclo[2.2.2]oct-3-yl)-N-[4′-(hydroxymethyl)-1,1′-biphenyl-3-yl]acetamide Hydrochloride] showed a negative-log Ki (pKi) of 6.28.

Regarding `CC(C)NC(=O)OCc1ccc(-c2ccc(NC(=O)[C@H]3CN4CCC3CC4)cc2)cc1` [Example 24, (4′-{[(3R)-1-Azabicyclo[2.2.2]oct-3-ylcarbonyl]amino}-1,1′-biphenyl-4-yl)methyl Isopropylcarbamate], the pKi under setting [1] was 6.64. Consider `NC(=O)c1ccc(-c2ccc(NC(=O)[C@H]3CN4CCC3CC4)cc2)cc1` [Example 21, (3R)-N-[4′-(Aminocarbonyl)-1,1′-biphenyl-4-yl]-1-azabicyclo[2.2.2]octane-3-carboxamide Hydrochloride], for which the pKi was 7.01. Same read-out and setting: to `O=C(Nc1ccc(-c2ccc(CO)cc2)cc1)[C@H]1CN2CCC1CC2` [Example 14, (3R)-N-[4′-(Hydroxymethyl)-1,1′-biphenyl-4-yl]-1-azabicyclo[2.2.2]octane-3-carboxamide Hydrochloride] belongs 7.70; to `O=C(Nc1ccc(-c2ccc(CO)c(F)c2)cc1)[C@H]1CN2CCC1CC2` [Example 22, (3R)-N-[4′-(Hydroxymethyl)-3′-fluoro-1,1′-biphenyl-4-yl]-1-azabicyclo[2.2.2]octane-3-carboxamide], 7.24; to `CNC(=O)OCc1ccc(-c2ccc(NC(=O)[C@H]3CN4CCC3CC4)cc2)cc1` [Example 23, (4′-{[(3R)-1-Azabicyclo[2.2.2]oct-3-ylcarbonyl]amino}-1,1′-biphenyl-4-yl)methyl Methylcarbamate], 7.41.

With `CC(C)(O)c1ccc(-c2ccc(NC(=O)[C@H]3CN4CCC3CC4)cc2)cc1` [Example 20, (3R)-N-[4′-(1-Hydroxy-1-methylethyl)-1,1′-biphenyl-4-yl]-1-azabicyclo[2.2.2]octane-3-carboxamide], the pKi was 8.00.
